We go through one molecule from patent US20260240807A1, “UROLITHINS FOR IMPROVING CARDIAC FUNCTION AND HEALTH” (Amazentis SA, priority 2022, published 2026).

The subject of assay [1] is Wistar male rats with myocardial infarction (permanent LAD occlusion). Kind of assay: Echocardiography and heart mass after myocardial infarction (LAD ligation). It is filed as in vivo, rat. To be noted: MI rats, 25 mg/kg daily by gavage for 2 months starting one week after MI, vs MI vehicle. Here is the method: The goal of the study is to assess urolithin A treatment effect on heart function after myocardial infarction. […] Myocardial infarction (MI) was induced in 6-week old Wistar male rats from groups 1, 2, and 3 (Table 3), by permanent occlusion of Left Anterior Descending coronary artery (ligation was performed at Do).
Rats were anesthetized with an intraperitoneal (IP) injection of Medetomidine (0.5 mg/kg) and ketamine (50 mg/kg), intubated and ventilated at 10 mL/kg tidal volume and 70-80 cycles/min. Body temperature were maintained between 36.5° C. and 37.5° C. via a thermoregulated heating pad connected to a rectal probe. Rats were placed in supine position, chest-shaved and prepared for standard surgical conditions. A left lateral thoracotomy was carefully performed so as to expose the heart. Then, a suture was placed around the LAD (4/0 Silk, Ethicon), around 2 mm below the left atrium and close to the interventricular junction, in order to obtain infarct size (IS) near 40% of the total left ventricular (LV) area. Chest was closed, air was expelled from the rib cage to avoid pneumothorax and quick reanimation was performed using atipamezole hydrochloride (IM, 0.5 mg/ml, Zoetis).
Animals from group 1 were subjected to the same protocol as MI groups. However, after the left lateral thoracotomy exposing the heart, the rib cage were closed without passing the suture thread around LAD.
Urolithin A or vehicle were administered by gavage at 25 mg/kg starting one week after myocardial infraction. Heart and plasma samples were collected at each time point. Ejection Fraction (EF), Fractional Shortening (FS), Isovolumic relaxation time (IVRT) were measured by echocardiography at 1 month and 2 month time points to evaluate heart function. […]
Rats were anesthetized with 4% isoflurane in 50% oxygen-50% air mixture and maintained with 2% isoflurane during the procedure. […] Body temperature was monitored and maintained between 36.5-37.5° C. via a rectal probe connected to the thermoregulated heating pad.
Standard B-mode (Brightness-mode) and M-mode (Motion-mode) images of the heart were obtained in the two-dimensional (2D) parasternal long axis view (PSLA). LV parameters will be measured and calculated as the mean of 3 consecutive cardiac cycles by a single blinded trained operator. • Left Ventricular function LV function is calculated using the LV dimensions parameters previously described. • FS=fractional shortening=[(LVIDd−LVIDs)/LVIDd]*100. It is a calculation based on the difference of dimensions between systole and diastole measured in M-mode. […] It is a calculation based on the difference of volumes between systole and diastole measured in B-mode and M-mode. […]

In assay [2] the test system is heart mitochondria of old C57BL/6 mice. Kind of assay: Transmission electron microscopy of heart mitochondria in old mice. It is filed as in vivo, mouse. The following applies: 50 mg/kg by gavage for 2 months, vs old vehicle. Here is the method: (§1) The goal of the study was to evaluate urolithin treatment effect on age-related heart dysfunction. Old C57BL/6 mice (24 months at the end of the study) were used as model to reproduce natural decline in heart function with aging and administered by gavage for 2 months with either Urolithin A at 50 mg/kg (Old UA) or vehicle (Old Vehicle). Young mice (18 weeks-old at the end of the study) were administered with vehicle for 2 months. Post-mortem heart muscles, were collected at the end of the study.
Muscle samples from animals as described in example 2 were fixed in 2% glutaraldehyde solution 0.1 M Sorenson's buffer (pH 7.3). These samples were later postfixed in 1% osmium tetroxide for 8 min [pulse microwaved (MW), 100 watts (W)] and rinsed in distilled H2O (3×150 W 40 s per step). Samples were dehydrated in a graded series of acetone (25%; 50%; 75%; 3× 100%; 150 W 40 seconds per step) before being impregnated with increasing concentrations of epoxy resin (TAAB medium resin) in acetone (25%; 50%; 75%; 3×100%; 300 W 3 min per step). The samples were then embedded in 100% fresh resin and left to polymerize at 60° C. in a conventional oven for a minimum of 24 h.
All resin blocks were trimmed using a razor blade to form a trapezoid block face. Sections were cut in a longitudinal or transverse orientation on an ultramicrotome (Wolf et al., 2019) using a diamond knife. Semithin sections (0.5 μm) were stained with toluidine blue and viewed on a light microscope (LM) to verify orientation of tissue. Ultrathin sections (70 nm) were then cut and picked up onto copper grids. Sections from blocks were stained with 1% uranyl acetate (30 min) and 3% lead citrate (7 min). All sections were examined using a HT7800 120 kV TEM (Hitachi). Digital micrographs were captured using an EMSIS Xarosa CMOS Camera with Radius software.
These samples were later postfixed in 1% osmium tetroxide during 1 h, dehydrated within an increasing concentration of acetone. […]
Individual heart mitochondria from 3 Young vehicle, 3 Old vehicle and 3 Old UA O-AL mice were manually traced in transverse orientations using ImageJ software (NIH) (https://imagej.nih.gov/ij/) and to quantify the following morphological and shape descriptors: area (μm2), perimeter (μm), circularity 4π×(area/perimeter2), aspect ratio ((major axis)/(minor axis)): the aspect ratio being a measure of the length to width ratio, form factor ((perimeter)/(4π×surface)): a measure sensitive to the complexity and the branched appearance of the mitochondria, Feret's diameter (the longest distance (μm) between two points of the mitochondria studied) and minimum Feret diameter (corresponds to the smallest diameter of the mitochondria) (Picard et al., 2012). […]

The test system of assay [3] is Old C57BL/6 mice. In words: Echocardiography in old mice (age-related heart dysfunction). To be noted: old mice (26 months), chow diet with urolithin A 50 mg/kg for 2 months. It is filed as in vivo, mouse. Here is the method:
(§2) The goal of the study is to evaluate urolithin treatment effect age-related heart dysfunction. […] Old C57BL/6 mice (26 months) were used as model to reproduce natural decline in heart function with aging. Chow diet with and without urolithin A was administered for 2 months at 50 mg/kg. Post-mortem heart muscles, skeletal muscles, and plasma samples post-mortem were collected at the end of the study. Ejection Fraction (EF), Fractional Shortening (FS) were measured by echocardiography. Muscle contractility was also measured. Analysis of both heart and skeletal muscle function were conducted at the end of the study.

Assay [4] concerns mitochondrial complex II enzyme SDH. In words: Succinate dehydrogenase activity staining of heart sections. The following applies: old mice, 50 mg/kg by gavage for 2 months, vs old vehicle control. It is filed as in vivo, mouse. The protocol: as §1
Hearts in OCT were cut into sections of […] using a cryostat. Sections were then incubated in a solution containing nitroblue tetrazolium (1.5 mM), sodium succinate (130 mM), phenazine methosulphate (0.2 mM), and sodium azide (0.1 mM) for 6 min at room temperature. The reaction was stopped by two washes in PBS. Slides were mounted using Fluoromont mounting medium (Thermofisher, 00-4958-02). All samples were processed successively using the same incubation solution ensuring that they underwent the exact same experimental conditions. Images of the tissues were taken with a bright field microscope. The intensity of the staining was analyzed with Image J.

The subject of assay [5] is Old C57BL/6 mice. In words: Skeletal muscle function (muscle contractility) in old mice. It is filed as in vivo, mouse. To be noted: old mice (26 months), chow diet with urolithin A 50 mg/kg for 2 months. Here is the method: as §2
For assay [6], the system named is gene sets (Cellular Components) repressed with aging in heart. In words: RNA-seq gene set enrichment analysis of heart, old mice. The following applies: old mice treated with UA 50 mg/kg for 2 months vs old vehicle. It is filed as in vivo, mouse. The protocol: as §1
RNA-seq analysis from samples derived from example 3 has been performed as described for example 1.
A Gene set enrichment analysis was performed looking at gene set (i.e., biological pathways) belonging to the category “Cellular Components”.

In assay [7] the test system is gene sets (Cellular Components) linked to mitochondrial function in heart tissue. In words: RNA-seq gene set enrichment analysis of heart sections, MI rats. It is filed as in vivo, rat. The following applies: MI+UA vs MI rats, 25 mg/kg PO. Here is the method:
Heart sections from rats in the groups described in FIG. 1 (Example 1) have been prepared using a microtome, deparaffinized and RNA extracted using the following kit (RNAeasy FFPE 76504, Qiagen). Upon extraction, RNA was quality controlled with Agilent Fragment Analyzer System.
Library preparation was performed using Strand-specific cDNA library and following the steps here indicated: • rRNA depletion. • mRNA fragmentation. • Random primed cDNA synthesis (strand-specific) • Adapter ligation and adapter specific PCR amplification RNA-seq run was executed with the NovaSeq6000 using S4 flowcells with 2×150 bp.
QC and preprocessing of raw sequencing reads was performed using an in-house QC pipeline. […] High quality RNA-seq read pairs were mapped to the Ensembl rat reference genome
Reads with a minimum PHRED score of 15, a minimum length of 15 bp, and a minimum unqualified percent limit of 40 (40%) were retained for downstream analysis. […]
Gene Set Enrichment Analysis (GSEA) (Subramanian, et al. Proc Natl Acad Sci USA 2005, 102 (43), 15545-50) was performed for characterizing complex relations of gene expression changes with gene ontologies (cellular components), under different biological conditions. […] Gene ranking information is transformed to pathway level to assign statistical significance for each analyzed gene set. […]

`O=c1oc2cc(O)ccc2c2ccc(O)cc12` [Urolithin A]: in assay [1], the “cardiac hypertrophy, calculated as heart weight over tibia length” value is on record as “reduces”; the “diastolic function, measured as isovolumetric relaxation time” value is on record as “improves”; the “systolic dysfunction measured as Ejection fraction” value is listed as “significantly improves”; the “systolic dysfunction measured as Fractional shortening” value is recorded as “significantly improves”. In assay [2] (heart mitochondria), the cristae number result is “significantly increases” and the cristae volume density entry is “significantly increases”. The “mitophagy events, quantified as number of mitolysosomes” value in assay [2] (heart) is recorded as “significantly increases”. For the same molecule, the mitochondrial area result in assay [2] (heart, to levels compared to young animals) is “significantly increased”. Besides, the “increase in fractional shortening, after high-workload” value in the assay on Old C57BL/6 mice [3] (after high-workload) was “+39%”. Besides, in the assay on Old C57BL/6 mice [3] (basal), the “increase in fractional shortening, basally” value is recorded as “+32%”. Also, the “SDH enzymatic activity in the heart” value in assay [4] is recorded as “significantly increases”. Also, in the assay with Old C57BL/6 mice [5], the skeletal muscle function result is reported as “significantly prevents age-related decline”. Further, the “gene sets repressed with aging (respirasome, sarcolemma), normalized enrichment score” value in assay [6] is given as “induced”. For the same molecule, in assay [7], the “gene sets repressed with MI (mitochondrial protein-containing complex, respirasome, nucleoids, peroxisomes), normalized enrichment score” value is listed as “induced”.
